Key:
[1] = system: panel of human cancer (HT-29, DLD-1, HCT116 p53^+/+ and p53^−/−, PSN1, MiaPaCa2, BxPC3, A549, H460, GBM1) and non-cancer cell lines (ARPE-19, MCF10A, NP1); test: Chemosensitivity of a panel of human cancer and non-cancer cell lines (MTT, 96 h); format: cell-based; settings: for IC50: HT-29, DLD-1, HCT116 (p53 wild type and null), BxPC3, A549 and H460 cell lines, 96 h, MTT
Protocol: FIG. 7. Chemosensitivity response of a panel of human cancer and non-cancer cell lines to 96 h continuous exposure to self-assembling test compounds. a, The potency of compounds tested against cancer (HT-29, DLD-1, HCT116 p53^+/+ and […], PSN1, MiaPaCa2, BxPC3, A549, H460 and GBM1) and non-cancer cells (ARPE-19, MCF10A and NP1). Each value represents the mean IC50±standard deviation from a minimum of three independent experiments. b,c, The selectivity index (SI) for [L2Cu3]^6+ (b) and [L2Zn3]^6+ (c) for the indicated cancer cell lines; SI is defined as the mean IC50 against the particular non-cancer cell line model divided by the mean IC50 against the particular cancer cell line. […] As the SI value is calculated using the mean IC50 values, experimental error is not included in these figures. d,e, IC50 values for the clinically approved platinates (cisplatin, oxaliplatin and carboplatin) and [L2Mn3]^6+ and the corresponding SI results.
All cell lines used were maintained at low passage in antibiotic-free media and were obtained from ATCC (LGC Standards, Middlesex, UK) unless otherwise stated (Methods). HT29, DLD-1, HCT116 p53^+/+ and HCT116 p53^−/− are all colorectal adenocarcinoma cell lines derived from different individuals and harbor different combinations of oncogenic lesions (except for the HCT116 isogenic cancer cell clones that are genetically identical except for p53 status). PSN-1, BxPC-3 and MiaPaCa2 are pancreatic carcinoma cell lines and A549 and H460 are lung carcinoma cell lines. HT29, DLD-1, PSN-1, BxPC-3, A549 and H460 cell lines were cultured in RPMI-1640 growth media (Sigma) containing 2 mM L-glutamine, 1 mM sodium pyruvate and 10% fetal bovine serum (FBS). HCT116 (p53^+/+ and p53^−/−) and MiaPaCa2 cell lines were cultured in Dulbecco's Modified Eagle's Medium (Sigma), 2 mM L-glutamine and 10% FBS. The ARPE-19 retinal epithelial non-cancer cell line (Dunn et al., 1996) was cultured in DMEM/F12 media (Gibco), 2 mM L-glutamine, 1 mM sodium pyruvate and 10% FBS. The MCF10A non-cancerous human breast epithelial cell line was cultured in Minimal Essential Media Eagle (Sigma), 2 mM L-glutamine, 1 mM sodium pyruvate, 10% FBS and 1×non-essential amino acids (NEAA). NP1 and GBM1 cells were cultured on plasticware coated with poly-L-ornithine (5 μg/ml) and laminin (2.4 μg/ml) (Polson et al., 2018; Da Silva et al., 2019). […]
[L2M3]^6+ and all the other self-assembling complexes were freshly formed by adding DMSO to individual components mixing together by pipetting. […] Media and MTT were removed and formazan crystals were dissolved in 150 μl of DMSO and the absorbance of the resulting solution determined at 540 nm. […]

[2] = system: AMPK; test: Cell-free kinase screen; format: biochemical, human; settings: 10 μM complex
Protocol: FIG. 9. Effects of [L2Zn3]^6+ and [L2Cu3]^6+ on the activity of purified human kinases. a,b, Percentage inhibition of the indicated kinases by [L2Zn3]^6+ (a) and [L2Cu3]^6+ (b) respectively at a concentration of 10 μM; full results are presented in the ESI. c,d, Kinases whose activity is stimulated by [L2Zn3]^6+ (c) or [L2Cu3]^6+ (d) complexes. e,f, Kinome map showing kinases inhibited (red) or stimulated (green) by [L2Zn3]^6+ (e) or [L2Cu3]^6+ (f). III ustration reproduced courtesy of Cell Signalling Technology Inc (www.cellsignal.com)
FIG. 16. The effect of [L2Zn3]^6+ and [L2Cu3]^6+ on the activity of recombinant human kinases. The compounds were submitted to the MRC Protein Phosphorylation and Ubiquitination Unit International Centre for Kinase Profiling (University of Dundee) and tested at a concentration of 10 μM against 140 human kinases (Premier Screen).
Given the ability of the Zn^2+ complex to dephosphorylate amino acids serine, tyrosine and threonine (FIG. 6) and the Cu^2+ complex to bind phenyl phosphate (FIG. 3), it was examined whether the complexes affect the activity of kinases. This was assessed in a cell-free screen of 140 kinases using purified recombinant human kinases and substrate peptides incubated in the presence of ^33P ATP and 10 μM complex or solvent control. […]

Compound | IC50 [1] | selectivity indices ([1]; many of the cancer cell lines) | effect on AMPK activity in the kinase screen [2]
[Cu+2].[Cu+2].[Cu+2].c1ccc(-c2csc(NCCN(CCNc3nc(-c4ccccn4)cs3)CCNc3nc(-c4ccccn4)cs3)n2)nc1.c1ccc(-c2csc(NCCN(CCNc3nc(-c4ccccn4)cs3)CCNc3nc(-c4ccccn4)cs3)n2)nc1 [[L2Cu3]^6+] | mostly sub-μM | > 100 | inhibition of AMPK
[Zn+2].[Zn+2].[Zn+2].c1ccc(-c2csc(NCCN(CCNc3nc(-c4ccccn4)cs3)CCNc3nc(-c4ccccn4)cs3)n2)nc1.c1ccc(-c2csc(NCCN(CCNc3nc(-c4ccccn4)cs3)CCNc3nc(-c4ccccn4)cs3)n2)nc1 [[L2Zn3]^6+] | mostly sub-μM | – | inhibition of AMPK

From patent publication US20230322815A1, “NOVEL COMPOUNDS AND THERAPEUTIC USES THEREOF” (University of Huddersfield, priority 2020, published 2023)
